The values that follow come from PMC4011036, “Higher Desolvation Energy Reduces Molecular Recognition in Multi-Drug Resistant HIV-1 Protease” (Biology, 2012).

For one experiment, the target named is T1, HIV-1 protease NL4-3 (Human immunodeficiency virus type 1 group M subtype B, UniProt P12497, Q495K).
T1 construct: made in house; host or cells: E. coli (pET21b)
As to the kind of experiment: HIV-1 protease inhibition (FRET substrate cleavage), NL4-3 (WT). Format: biochemical. The settings on record: FRET substrate I, 0.1 M sodium acetate, 1.0 M NaCl, 1.0 mM EDTA, 1.0 mM DTT, 10% DMSO, 1 mg/mL BSA, pH 4.7, fluorescence 340/490 nm, read-out: IC50 of HIV-1 protease inhibitors.

The next experiment concerns the target T2, HIV-1 protease MDR 769 (Human immunodeficiency virus type 1 group M subtype B, UniProt P12497, A559V/I542V/I550V/I572V/L498I/L551P/L578M/M524V/M534L/Q495K/V570A).
T2 construct: made in house; host or cells: E. coli (pET21b)
As to the kind of experiment: HIV-1 protease inhibition (FRET substrate cleavage), MDR 769. Format: biochemical. The settings on record: FRET substrate I, 0.1 M sodium acetate, 1.0 M NaCl, 1.0 mM EDTA, 1.0 mM DTT, 10% DMSO, 1 mg/mL BSA, pH 4.7, fluorescence 340/490 nm, read-out: IC50 of HIV-1 protease inhibitors.

For the next experiment, the target named is T3, HIV-1 protease MDR 807 (Human immunodeficiency virus type 1 group M subtype B, UniProt P12497, A559V/G536V/I542T/I550V/I581L/L498I/L551Q/M534I/Q495K/Q549N/R529K/T562A/V565I/V570A).
T3 construct: made in house; host or cells: E. coli (pET21b)
As to the kind of experiment: HIV-1 protease inhibition (FRET substrate cleavage), MDR 807. Format: biochemical. As to conditions: FRET substrate I, 0.1 M sodium acetate, 1.0 M NaCl, 1.0 mM EDTA, 1.0 mM DTT, 10% DMSO, 1 mg/mL BSA, pH 4.7, fluorescence 340/490 nm, read-out: IC50 of HIV-1 protease inhibitors.

For the next experiment, the target named is T4, HIV-1 protease MDR 1385 (Human immunodeficiency virus type 1 group M subtype B, UniProt P12497, A559V/I581L/L498F/L551P/L577M/L578M/M524I/M534I/N525D/Q495K/R545K/V570T).
T4 construct: made in house; host or cells: E. coli (pET21b)
As to the kind of experiment: HIV-1 protease inhibition (FRET substrate cleavage), MDR 1385. Format: biochemical. The settings on record: FRET substrate I, 0.1 M sodium acetate, 1.0 M NaCl, 1.0 mM EDTA, 1.0 mM DTT, 10% DMSO, 1 mg/mL BSA, pH 4.7, fluorescence 340/490 nm, read-out: IC50 of HIV-1 protease inhibitors.

Another experiment addresses T5, HIV-1 protease MDR 3761 (Human immunodeficiency virus type 1 group M subtype B, UniProt P12497, A559I/G561T/I503V/I552V/I572V/I581L/K508I/L498I/L507I/L551P/L578M/M534I/P567S/Q495K/T500A).
T5 construct: made in house; host or cells: E. coli (pET21b)
As to the kind of experiment: HIV-1 protease inhibition (FRET substrate cleavage), MDR 3761. Format: biochemical. The settings on record: FRET substrate I, 0.1 M sodium acetate, 1.0 M NaCl, 1.0 mM EDTA, 1.0 mM DTT, 10% DMSO, 1 mg/mL BSA, pH 4.7, fluorescence 340/490 nm, read-out: IC50 of HIV-1 protease inhibitors.

The test system of experiment [1] is four MDR protease variants. The settings on record: four clinical MDR isolates, enzyme inhibition assays, relative to NL4-3 (WT). An excerpt:
HIV protease Forster Resonance Energy Transfer (FRET) substrate I used in the IC50 determination and substrate interference was purchased from AnaSpec, Inc. (Fremont, CA, USA). The US FDA-approved HIV-1 protease inhibitors were kindly provided by the NIH AIDS Research and Reference Reagent Program (www.aidsreagent.org). The CA/p2 pseudopeptide with a reduced scissile peptide bond [-ψ(CH2NH)-] was synthesized in the Department of Chemistry, Wayne State University. The nine substrate hepta-peptides were purchase from SynBioSci Corporation, Livermore, CA, USA. […] The IC50 determination was described previously. […] The protease concentration was adjusted to a substrate cleavage velocity of 5 Relative Fluorescence Units (RFU)/min in the absence of regular substrate. […] Upon the addition of the HIV-1 protease, the fluorescent signal emitted through the cleavage of the FRET substrate was recorded using SpectraMax M5 (Molecular Devices, Sunnyvale, CA, USA) at an excitation wavelength of 340 nm and an emission wavelength of 490 nm. The average velocity of FRET substrate cleavage in RFU/min was calculated based on fluorescent signal at 30 time point over 30 min. In the control experiment, the average velocity of FRET substrate cleavage was determined in the absence of regular substrates. […]

Method for HIV-1 protease MDR 1385: (§1) The HIV-1 protease reaction buffer was 0.1 M sodium acetate, 1.0 M sodium chloride, 1.0 mM ethylenediaminetetraacetic acid (EDTA), 1.0 mM DTT, 10% dimethylsulfoxide (DMSO), and 1 mg/mL bovine serum albumin (BSA) at pH 4.7. The protease concentration was adjusted to a substrate cleavage velocity of 5 Relative Fluorescence Units (RFU)/min in the absence of regular substrate. […] Upon the addition of the HIV-1 protease, the fluorescent signal emitted through the cleavage of the FRET substrate was recorded using SpectraMax M5 (Molecular Devices, Sunnyvale, CA, USA) at an excitation wavelength of 340 nm and an emission wavelength of 490 nm. The average velocity of FRET substrate cleavage in RFU/min was calculated based on fluorescent signal at 30 time point over 30 min.
Method for HIV-1 protease MDR 3761: as §1
Method for HIV-1 protease MDR 769: as §1
Method for HIV-1 protease MDR 807: as §1
Method for HIV-1 protease NL4-3: as §1

As usually defined, the IC50 is the point on the concentration scale where inhibition reaches its midpoint. `CC(C)CN(C[C@@H](O)[C@H](Cc1ccccc1)NC(=O)O[C@H]1CCOC1)S(=O)(=O)c1ccc(N)cc1` [APV, amprenavir]: the IC50 at HIV-1 protease NL4-3 is 0.43 nM; at HIV-1 protease MDR 769, 4.8 nM; on HIV-1 protease MDR 807 it was 2.9 nM; on HIV-1 protease MDR 1385 it was 3.1 nM; on HIV-1 protease MDR 3761, 4.1 nM.

Turning to `COC(=O)N[C@H](C(=O)N[C@@H](Cc1ccccc1)[C@@H](O)CN(Cc1ccc(-c2ccccn2)cc1)NC(=O)[C@@H](NC(=O)OC)C(C)(C)C)C(C)(C)C` [ATV, atazanavir], the IC50 on HIV-1 protease NL4-3 turned out to be 0.19 nM; at HIV-1 protease MDR 769 it was 2.9 nM; at HIV-1 protease MDR 807 it was 7.6 nM; at HIV-1 protease MDR 1385, 4.6 nM; at HIV-1 protease MDR 3761, 2.2 nM.

For the compound `Cc1cccc(C)c1OCC(=O)N[C@@H](Cc1ccccc1)[C@@H](O)C[C@H](Cc1ccccc1)NC(=O)[C@H](C(C)C)N1CCCNC1=O` [LPV, lopinavir], the “resistance of MDR variants to inhibitors (in words)” value in experiment [1] is recorded as “lower relative resistance”.

In the case of `Cc1c(O)cccc1C(=O)N[C@@H](CSc1ccccc1)[C@H](O)CN1C[C@H]2CCCC[C@H]2C[C@H]1C(=O)NC(C)(C)C` [NFV, nelfinavir], the IC50 at HIV-1 protease NL4-3 worked out at 1.6 nM; at HIV-1 protease MDR 769, 110 nM; at HIV-1 protease MDR 807 it was 210 nM; at HIV-1 protease MDR 1385, 230 nM; on HIV-1 protease MDR 3761, 430 nM.

As to `CCC[C@@]1(CCc2ccccc2)CC(O)=C([C@H](CC)c2cccc(NS(=O)(=O)c3ccc(C(F)(F)F)cn3)c2)C(=O)O1` [TPV, tipranavir], the IC50 on HIV-1 protease NL4-3 was 0.24 nM; on HIV-1 protease MDR 769, 0.65 nM; on HIV-1 protease MDR 807, 0.63 nM; at HIV-1 protease MDR 1385 it was 2.8 nM; on HIV-1 protease MDR 3761 it was 0.63 nM.
